“And” between values parts separate entries of the source, which are not always exact repeats. Equal entries are not always repeated.
Key:
[1] = UV-VIS absorption of the photoinitiators; assay type: physicochemical; conditions: for long-wave absorption maximum (λmax): UV-VIS; for extinction coefficient ε: at λmax
Text: The photoinitiator di-Ge according to the invention with a long-wave absorption maximum of 400.5 nm has an extinction coefficient ε=3260 dm^2/mol which is thus more than twice that of benzoyltrimethylgermane mono-Ge (ε=1461 dm^2/mol), which leads to an improvement in photopolymerization activity. Compared with the Norrish type II photoinitiator camphorquinone widely used in the dental field, the extinction coefficient of which ε at λmax of 468 nm is only 380 dm^2/mol and which moreover requires an additional reducing agent, in most cases amine, for effective radical formation, the absorption maximum of di-Ge is clearly on a shorter wavelength and thus fades very well when irradiated.

[2] = background statement; cited from earlier work

Row | Compound | long-wave absorption maximum (λmax) [1] [nm] | extinction coefficient ε [1] | absorption maximum wavelength [2] [nm]
1 | [CH3][Ge]([CH3])([CH3])[C](=O)c1ccc(OCCCCCCOc2ccc([C](=O)[Ge]([CH3])([CH3])[CH3])cc2)cc1 [di-Ge, 1,6-bis[4-(trimethylgermylcarbonyl)phenoxy]hexane] | 400.5 | 3260 dm^2/mol | –
2 | [CH3][Ge]([CH3])([CH3])[C](=O)c1ccccc1 [mono-Ge, benzoyltrimethylgermanium] | 411.5 | 1374 dm^2/mol and 1461 dm^2/mol | –
3 | CC12CCC(C(=O)C1=O)C2(C)C (stereo not shown) [camphorquinone] | 468 | 380 dm^2/mol | 468

Source: patent US8829067B2, “Polymerizable compositions with initiators containing several Ge atoms” (Ivoclar Vivadent AG, priority 2008, dated 2014)
